Values after ≈ are worked out from the molar mass of the structure shown. Values joined by “and” are separate entries in the source; they are usually repeats but may differ in a detail not shown here. Equal entries are not always repeated.
Assays:
[1] = system: B. subtilis (ATCC 6051); assay: Antibacterial activity, MIC50 by resazurin fluorometric measurement; format: cell-based; conditions: Bacillus subtilis, ATCC6051; means of triplicate assays
Protocol: (§1) Obtained compounds (2a–2j) were evaluated for antibacterial activity against Escherichia coli (E. coli) (ATCC 25922), Pseudomonas aeruginosa (P. aeruginosa) (ATCC 27853), […] (E. faecalis) (ATCC 2942), Bacillus subtilis (B. subtilis) (ATCC 6051), Staphylococcus aureus (S. aureus) (ATCC 29213), and Staphylococcus epidermidis (S. epidermidis) (ATCC 12228). MIC50 values were determined via fluorometric measurements, using resazurin solution.[13] Azithromycin was used as a standard drug in the antibacterial activity test.
(§2) The antimicrobial activity of obtained derivatives (2a–2j) was screened on six bacterial and three fungal strains according to the standard procedure of CLSI[20] as described in the previous study.[21] The antibacterial activities of the obtained compounds were screened against B. subtilis (ATCC 6051), E. coli (ATCC 25922), E. faecalis (ATCC 2942), P. aeruginosa (ATCC 27853), S. aureus (ATCC 29213), and S. epidermidis (ATCC 12228). The obtained compounds were evaluated for anticandidal activity against C. albicans (ATCC 24433), C. krusei (ATCC 6258), and C. parapsilopsis (ATCC 22019). For antibacterial activity, azithromycin was utilized as a reference drug, whereas voriconazole and fluconazole were used for anticandidal activity.

[2] = system: E. coli (ATCC 25922); assay: as above; format: cell-based; conditions: Escherichia coli, ATCC25922; means of triplicate assays
Protocol: as §1, §2

[3] = system: P. aeruginosa (ATCC 27853); assay: as above; format: cell-based; conditions: Pseudomonas aeruginosa, ATCC27853; means of triplicate assays
Protocol: as §1, §2

[4] = system: E. faecalis (ATCC 2942); assay: as above; format: cell-based, Enterococcus faecalis
Protocol: as §1, §2

[5] = system: S. aureus (ATCC 29213); assay: as above; format: cell-based, Staphylococcus aureus
Protocol: as §1, §2

[6] = system: S. epidermidis (ATCC 12228); assay: as above; format: cell-based, Staphylococcus epidermidis
Protocol: as §1, §2

[7] = system: C. albicans (ATCC 24433); assay: Anticandidal activity, MIC50 by resazurin fluorometric measurement; format: cell-based, Candida albicans
Protocol: (§3) Obtained compounds (2a–2j) were evaluated for anticandidal activity against Candida albicans (C. albicans) (ATCC 24433), Candida krusei (C. krusei) (ATCC 6258), and Candida parapsilopsis (C. parapsilopsis) (ATCC 22019). MIC50 values were determined via fluorometric measurements, using resazurin solution.[13] Voriconazole and fluconazole were used as a standard drug in the anticandidal activity test. […] In general, it is seen that the 2-methoxyethyl substituent increases the anticandidal activity.
as §2

[8] = system: C. krusei (ATCC 6258); assay: as above; format: cell-based, Candida krusei
Protocol: as §3, §2

[9] = system: C. parapsilopsis (ATCC 22019); assay: as above; format: cell-based, Candida parapsilopsis; conditions: Candida, ATCC22019; means of triplicate assays
Protocol: as §3, §2

[10] = system: A549 cell line; assay: MTT cytotoxicity test; format: cell-based; conditions: for IC50: MTT, 24-h treatment, means of quartet assays ± SEM
Protocol: (§4) The MTT test was performed using 3 different cell lines for calculated IC50 values of obtained compounds. […] For this purpose, the cytotoxic effects of the compounds against the healthy mouse fibroblast cell (NIH3T3) were investigated.
(§5) The 3-(4,5-dimethylthiazol-2-yl)-2,5-diphenyltetrazolium salt reduction method, or MTT assay, is used to measure the metabolic activity of live cells. […] Doxorubicin is used as a therapeutic drug. MTT assays were carried out as previously explained.[19]

[11] = system: HepG2 cell line; assay: MTT cytotoxicity test; format: cell-based; conditions: Homo sapiens, 24-h treatment, means of quartet assays ± SEM
Protocol: as §4, §5

[12] = system: healthy mouse fibroblast cell (NIH3T3); assay: MTT cytotoxicity test on healthy cells; format: cell-based; conditions: 24-h treatment, means of quartet assays ± SEM
Protocol: as §4, §5

[13] = system: carcinogenic cell lines; assay: Flow cytometric analysis of apoptosis and necrosis (Apoptosis, Necrosis and Healthy Cell Quantitation Kit Plus); format: cell-based; conditions: IC50 concentration, 24-h incubation
Text: The flow cytometer was used to calculate the percentages of apoptotic and necrotic cells in four different quadrants, which are denoted by the letters “UL, UR, LL, LR” (Upper Left, Upper Right, Lower Left, Lower Right). The four distinct quadrants in the diagram represent the following areas, respectively: Apoptotic or early apoptotic cells, LR: CF488A+/(EthD-III)-; necrotic or late apoptotic cells, […]: CF488A+/(EthD-III)+; intact cells, LL: CF488A/(EthD-III); and dead or necrotic cells, UR: CF488A+/(EthD-III)+. The IC50 concentration of each substance was used in administration.
Death pathway of the carcinogenic cell lines was detected by Apoptosis, Necrosis and Healthy Cell Quantitation Kit Plus (Cat: 30066, Biotium, Hayward, CA, USA)[22] as reported in the manufacturer’s instruction. The IC50 values for doxorubicin and compound 2j were applied. Cells were collected by centrifugation at 1200 rpm for 5 min following a 24-h incubation period. It was washed 2 times with PBS, centrifuged and turned into pellets. One ×10^6 cells/mL of annexin were suspended in V-FITC binding buffer. Ethidium iodide ([…]), Hoestch 1 mL, and annexin V-FITC ([…]) were added to stain cells and using the CytoFLEX Flow Cytometer (Beckman Coulter Life Sciences, USA) and CytExpert for CytoFLEX Acquisition and Analysis Software Version 2.2.0.97 instrument. Fluorescence measurements were made using a flow cytometer in accordance with the instrument procedure.

[14] = system: A549 cell line; assay: Analysis of mitochondrial membrane potential (MMP) by flow cytometry, JC-1 dye; format: cell-based; conditions: A549, IC50 concentration, 24-h incubation
Protocol: After a 24-h incubation period, mitochondrial membrane potential was measured with JC-1 dye.
The BD Mitoscreen Mitochondrial Membrane Potential Detection JC-1 Kit (available from ref ([23])) was used for the MMP test. First, A549 cells were seeded in 25 mL flasks and incubated for 24 h in a 5% CO2 incubator. […] At the end of this period, cells were collected and centrifuged in accordance with the kit contents. After the upper part was removed, JC-1 dye was added and incubated at 37 °C for 10–15 min. At the end of the period, it was washed 2 times with washing solution and reading was done with the appropriate procedure using the CytoFLEX Flow Cytometer (Beckman Coulter Life Sciences, USA) and CytExpert for CytoFLEX Acquisition and Analysis Software Version 2.2.0.97.

[15] = molecular target: T1, VEGFR-2 enzyme (Homo sapiens, UniProt P35968); assay: VEGFR-2 inhibition assay (VEGFR-2 Kinase Assay Kit); format: biochemical; conditions: serial 11 dilutions, 1000 μM–0.01 μM
T1 construct: purchased
T1 sequence (P35968 20-1356): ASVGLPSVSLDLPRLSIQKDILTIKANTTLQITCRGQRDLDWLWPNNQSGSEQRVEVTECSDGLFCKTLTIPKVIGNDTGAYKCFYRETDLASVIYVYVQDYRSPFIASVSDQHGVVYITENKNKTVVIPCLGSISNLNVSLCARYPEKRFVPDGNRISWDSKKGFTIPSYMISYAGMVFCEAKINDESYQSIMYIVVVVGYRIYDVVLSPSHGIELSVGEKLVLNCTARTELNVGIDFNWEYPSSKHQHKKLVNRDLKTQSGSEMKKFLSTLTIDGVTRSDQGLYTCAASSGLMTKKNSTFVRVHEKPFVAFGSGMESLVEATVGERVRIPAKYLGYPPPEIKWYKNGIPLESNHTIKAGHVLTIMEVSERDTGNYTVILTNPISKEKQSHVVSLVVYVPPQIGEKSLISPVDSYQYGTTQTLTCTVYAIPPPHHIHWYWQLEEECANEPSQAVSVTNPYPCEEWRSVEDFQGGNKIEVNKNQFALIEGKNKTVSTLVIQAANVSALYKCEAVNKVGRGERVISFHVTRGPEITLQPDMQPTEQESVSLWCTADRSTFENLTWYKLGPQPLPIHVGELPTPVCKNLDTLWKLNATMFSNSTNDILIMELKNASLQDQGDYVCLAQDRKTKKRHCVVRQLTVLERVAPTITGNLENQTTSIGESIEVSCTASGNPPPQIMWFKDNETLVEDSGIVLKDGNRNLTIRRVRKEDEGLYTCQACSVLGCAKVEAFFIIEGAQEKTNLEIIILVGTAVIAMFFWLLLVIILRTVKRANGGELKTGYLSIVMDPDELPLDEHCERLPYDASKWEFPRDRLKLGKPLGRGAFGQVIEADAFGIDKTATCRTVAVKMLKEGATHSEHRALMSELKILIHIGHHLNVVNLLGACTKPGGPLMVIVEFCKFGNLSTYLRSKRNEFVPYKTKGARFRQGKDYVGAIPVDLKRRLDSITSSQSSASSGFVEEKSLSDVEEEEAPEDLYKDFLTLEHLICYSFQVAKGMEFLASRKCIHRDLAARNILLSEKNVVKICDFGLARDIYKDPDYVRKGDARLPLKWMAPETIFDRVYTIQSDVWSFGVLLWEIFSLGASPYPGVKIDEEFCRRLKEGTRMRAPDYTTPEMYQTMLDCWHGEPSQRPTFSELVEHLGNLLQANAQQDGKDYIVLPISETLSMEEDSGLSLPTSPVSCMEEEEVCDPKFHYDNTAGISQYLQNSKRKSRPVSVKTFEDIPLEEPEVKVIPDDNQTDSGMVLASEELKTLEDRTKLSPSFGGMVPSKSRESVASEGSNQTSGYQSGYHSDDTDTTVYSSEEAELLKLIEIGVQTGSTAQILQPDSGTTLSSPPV
Protocol: The VEGFR-2 Kinase Assay Kit (Available from ref ([15])) was used for the VEGFR-2 inhibition. The experiment was performed in vitro according to the kit procedure. Serial 11 dilutions of compound 2j were prepared at concentrations of 1000 μM–0.01 μM. The IC50 value for compound 2j was calculated using the kit procedure.
The VEGFR-2 Kinase Assay Kit (available from ref ([15])) was used for the VEGFR-2 inhibition. The experiment was performed in vitro according to the kit procedure.

[16] = system: carcinogenic cell lines; assay: Flow cytometric analysis of apoptosis and necrosis (Apoptosis, Necrosis and Healthy Cell Quantitation Kit Plus); format: cell-based; conditions: IC50 concentration, 24-h incubation; remark: listed apart in the source

MIC50 [1]: > 100 µg/mL
MIC50 [2]: > 100 µg/mL
MIC50 [3]: 62.5 µg/mL (≈ 156 µM)
MIC50 ([4]; Enterococcus faecalis, ATCC2942, means of triplicate assays): 15.6 µg/mL (≈ 38.9 µM)
MIC50 E. faecalis ([4]; means of triplicate assays): 15.7 µg/mL (≈ 39.2 µM)
MIC50 ([5]; Staphylococcus aureus, ATCC29213, means of triplicate assays): 31.2 µg/mL (≈ 78 µM)
MIC50 S. aureus ([5]; means of triplicate assays): 31.3 µg/mL (≈ 78.1 µM)
MIC50 ([6]; Staphylococcus epidermidis, ATCC12228, means of triplicate assays, read-out: MIC50 S. epidermis): 31.2 µg/mL (≈ 78 µM)
MIC50 S. epidermis ([6]; means of triplicate assays): 31.3 µg/mL (≈ 78.1 µM)
MIC50 ([7]; Candida albicans, ATCC24433, means of triplicate assays): 15.6 µg/mL (≈ 39 µM)
MIC50 C. albicans ([7]; means of triplicate assays): 15.6 µg/mL (≈ 38.9 µM)
MIC50 ([8]; Pichia kudriavzevii, ATCC6258, means of triplicate assays): 15.6 µg/mL (≈ 39 µM)
MIC50 C. krusei ([8]; means of triplicate assays): 15.6 µg/mL (≈ 38.9 µM)
MIC50 [9]: > 100 µg/mL
IC50 [15]: 0.098 ± 0.005 µM
SMILES: COCCN1CCN(c2ccc(C(=O)C=Cc3ccc4ccccc4c3)cc2)CC1 [2j, 1-(4-(4-(2-Methoxyethyl)piperazin-1-yl)phenyl)-3-(naphthalen-2-yl)prop-2-en-1-one]
IC50 ([10]; Homo sapiens, A549, 24 h): < 10 µM
IC50 [10]: 7.8 µM and 7.83 µM
selectivity index (IC50 value vs healthy cell/IC50 value vs cancer cell) ([10]; NIH3T3 vs A549 cell line): 1.990
IC50 [11]: 38.9 ± 1.34 µM
IC50 [12]: 15.6 ± 0.75 µM
early apoptosis (Q1-LR) [13]: 3.97%
intact cells (Q1-LL) [13]: 67.71%
necrosis (Q1-UL) [13]: 18.06% and 18.1%
rate of apoptosis (early + late apoptosis) [13]: 14.230% and 14.2%
mitochondrial membrane potential (P3) [14]: 58.870%
late apoptosis (Q1-UR) [16]: 10.26% and 10.3%

Source: PMC9947975, “Design, Synthesis, and Biological Evaluation Studies of Novel Naphthalene-Chalcone Hybrids As Antimicrobial, Anticandidal, Anticancer, and VEGFR-2 Inhibitors” (ACS Omega, 2023)
